Here are results for eleven compounds from patent US7790763B2, “Substituted phenyl methanone derivatives” (Hoffmann-La Roche Inc., priority 2005, dated 2010).

This test addresses T1, mGlyT-1b (Mus musculus, UniProt P28571).
T1 construct: host or cells: Flp-in-CHO cells, stably transfected
T1 sequence (P28571 1-651 isoform P28571-2): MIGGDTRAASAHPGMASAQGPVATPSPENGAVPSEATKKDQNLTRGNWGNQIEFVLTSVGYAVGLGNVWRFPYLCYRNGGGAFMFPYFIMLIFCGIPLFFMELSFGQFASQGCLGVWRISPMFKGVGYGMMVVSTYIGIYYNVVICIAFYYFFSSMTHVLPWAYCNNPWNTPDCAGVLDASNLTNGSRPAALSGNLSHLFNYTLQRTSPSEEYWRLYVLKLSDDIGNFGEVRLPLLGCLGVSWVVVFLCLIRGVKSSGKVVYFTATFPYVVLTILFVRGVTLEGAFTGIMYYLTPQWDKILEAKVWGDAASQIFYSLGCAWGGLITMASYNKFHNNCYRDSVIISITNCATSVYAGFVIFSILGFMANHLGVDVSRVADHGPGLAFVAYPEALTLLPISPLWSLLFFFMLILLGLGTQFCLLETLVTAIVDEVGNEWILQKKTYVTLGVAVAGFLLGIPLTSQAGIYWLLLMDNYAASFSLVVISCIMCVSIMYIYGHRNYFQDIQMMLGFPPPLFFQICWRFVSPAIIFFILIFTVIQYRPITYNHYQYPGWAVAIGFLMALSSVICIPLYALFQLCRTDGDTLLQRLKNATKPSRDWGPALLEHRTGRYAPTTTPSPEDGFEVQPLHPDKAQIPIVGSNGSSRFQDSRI
As to the kind of experiment: Glycine uptake inhibition assay (mGlyT-1b). Format: cell-based. The conditions noted are these: [3H]-glycine uptake, Flp-in-CHO cells transfected with mGlyT-1b cDNA, 20 min preincubation at 22° C.; read-out: IC50 (μM) at GlyT-1. On the procedure: DMEM complete medium: Nutrient mixture F-12 (Gibco Life-technologies), fetal bovine serum (FBS) 5%, (Gibco life technologies), Penicillin/Streptomycin1% (Gibco life technologies), Hygromycin 0.6 mg/ml (Gibco life technologies), Glutamine 1 mM Gibco life technologies)
Uptake buffer (UB): 150 mM NaCl, 10 mM Hepes-Tris, pH 7.4, 1 mM CaCl2, 2.5 mM KCl, 2.5 mM MgSO4, 10 mM (+) D-glucose. Flp-in™-CHO (Invitrogen Cat n° R758-07)cells stably transfected with mGlyT1b cDNA.
Glycine Uptake Inhibition Assay (mGlyT-1b)
On day 1 mammalian cells, (Flp-in™-CHO), transfected with mGlyT-1b cDNA, were plated at the density of 40,000 cells/well in complete F-12 medium, without hygromycin in 96-well culture plates. On day 2, the medium was aspirated, and the cells were washed twice with uptake buffer (UB). The cells were then incubated for 20 min at 22° C. with either (i) no potential competitor, (ii) 10 mM non-radioactive glycine, (iii) a concentration of a potential inhibitor. A range of concentrations of the potential inhibitor was used to generate data for calculating the concentration of inhibitor resulting in 50% of the effect (e.g. IC50, the concentration of the competitor inhibiting glycine uptake of 50%). A solution was then immediately added containing [^3H]-glycine 60 nM (11-16 Ci/mmol) and 25 μM non-radioactive glycine. The plates were incubated with gentle shaking, and the reaction was stopped by aspiration of the mixture and washing (three times) with ice-cold UB. The cells were lysed with scintillation liquid, shaken 3 hours and the radioactivity in the cells was counted using a scintillation counter.
In the case of `CC(C)Oc1ccc(S(C)(=O)=O)cc1C(=O)N1CCC(Oc2ccc(C(F)(F)F)cc2)C1` (racemic) [Example 13, Rac-(2-Isopropoxy-5-methanesulfonyl-phenyl)-[3-(4-trifluoromethyl-phenoxy)-pyrrolidin-1-yl]-methanone], the IC50 was 0.55 µM. For `CC(C)Oc1ccc(S(C)(=O)=O)cc1C(=O)N1CCC(Oc2ccc3ccccc3c2)C1` (racemic) [Example 18, Rac-(2-Isopropoxy-5-methanesulfonyl-phenyl)-[3-(naphthalen-2-yloxy)-pyrrolidin-1-yl]-methanone], the IC50 turned out to be 0.87 µM.

With `CC(C)Oc1ccc(S(C)(=O)=O)cc1C(=O)N1CCC(Oc2ccc([N+](=O)[O-])cc2)CC1` [Example 4, (2-Isopropoxy-5-methanesulfonyl-phenyl)-[4-(4-nitro-phenoxy)-piperidin-1-yl]-methanone], the half-maximal inhibitory concentration (IC50) is 1 µM. With `CC(=O)c1ccc(OC2CCN(C(=O)c3cc(S(C)(=O)=O)ccc3OC(C)C)CC2)c(F)c1` [Example 5, 1-{3-Fluoro-4-[1-(2-isopropoxy-5-methanesulfonyl-benzoyl)-piperidin-4-yloxy]-phenyl}-ethanone], the IC50 was 0.93 µM. Regarding `CC(C)Oc1ccc(S(C)(=O)=O)cc1C(=O)N1CCC(Oc2cc(C(F)(F)F)ccc2F)CC1` [Example 8, [4-(2-Fluoro-5-trifluoromethyl-phenoxy)-piperidin-1-yl]-(2-isopropoxy-5-methanesulfonyl-phenyl)-methanone], the IC50 was determined as 0.63 µM. Then `CC(C)Oc1ccc(S(C)(=O)=O)cc1C(=O)N1CC(Oc2ccc(C(F)(F)F)cc2)C1` [Example 21, (2-Isopropoxy-5-methanesulfonyl-phenyl)-[3-(4-trifluoromethyl-phenoxy)-azetidin-1-yl]-methanone], with 0.87 µM; and `CC(C)Oc1ccc(S(C)(=O)=O)cc1C(=O)N1CC(Oc2cccc(C(F)(F)F)c2)C1` [Example 22, (2-Isopropoxy-5-methanesulfonyl-phenyl)-[3-(3-trifluoromethyl-phenoxy)-azetidin-1-yl]-methanone], with 0.7 µM. In the case of `C[C@H](Oc1ccc(S(C)(=O)=O)cc1C(=O)N1CC(Oc2ccc(C(F)(F)F)cc2)C1)C(F)(F)F` [Example 23, [5-Methanesulfonyl-2-((S)-2,2,2-trifluoro-1-methyl-ethoxy)-phenyl]-[3-(4-trifluoromethyl-phenoxy)-azetidin-1-yl]-methanone], the concentration for half-maximal inhibition (IC50) was determined as 0.39 µM. Consider `C[C@@H](Oc1ccc(S(C)(=O)=O)cc1C(=O)N1CC(Oc2ccc(C(F)(F)F)cc2)C1)C(F)(F)F` [Example 24, [5-Methanesulfonyl-2-((R)-2,2,2-trifluoro-1-methyl-ethoxy)-phenyl]-[3-(4-trifluoromethyl-phenoxy)-azetidin-1-yl]-methanone], for which the IC50 was 0.84 µM.

For the compound `CS(=O)(=O)c1ccc(N2CCOCC2)c(C(=O)N2CCC(Oc3ccc(C(F)(F)F)cc3)C2)c1` (centres unmarked) [Example 25, (5-Methanesulfonyl-2-morpholin-4-yl-phenyl)-[3-(4-trifluoromethyl-phenoxy)-pyrrolidin-1-yl]-methanone], the half-inhibitory concentration (IC50) is 0.078 µM.

For the compound `CNS(=O)(=O)c1ccc(OC2CCCC2)c(C(=O)N2CCC(Oc3ccc(C(F)(F)F)cc3)C2)c1` (centres unmarked) [Example 26, 4-Cyclopentyloxy-N-methyl-3-[3-(4-trifluoromethyl-phenoxy)-pyrrolidine-1-carbonyl]-benzenesulfonamide], the IC50 was found to be 0.109 µM.

In general, IC50 refers to the concentration that gives 50% inhibition.
